In brackets after ≈: the same amount, converted by molar mass.
Legend:
[1] = tested on: B. subtilis ATCC6633; experiment: MIC assay; assay type: cell-based, Bacillus subtilis; conditions: two-fold serial dilutions in liquid media, n = 2–3
[2] = tested on: M. smegmatis ATCC700084; experiment: MIC assay (REMA); assay type: cell-based, Mycobacterium smegmatis; conditions: n = 2–3
[3] = tested on: C. albicans DSM10697; experiment: MIC assay; assay type: cell-based, Candida albicans; conditions: two-fold serial dilutions in liquid media, n = 2–3
[4] = tested on: P. aeruginosa ATCC9027; experiment: MIC assay; assay type: cell-based, Pseudomonas aeruginosa; conditions: two-fold serial dilutions in liquid media, n = 2–3
[5] = tested on: S. aureus ATCC6538P; experiment: MIC assay; assay type: cell-based, Staphylococcus aureus; conditions: two-fold serial dilutions in liquid media, n = 2–3
[6] = tested on: E. coli ATCC8739; experiment: MIC assay; assay type: cell-based, Escherichia coli; conditions: two-fold serial dilutions in liquid media, n = 2–3
[7] = Mycolicibacterium smegmatis, ATCC700084, REMA microdilution
[8] = Pseudomonas aeruginosa, ATCC9027
[9] = Staphylococcus aureus, ATCC6538P

Row | Compound | MIC [1] | MIC ([2]; REMA microdilution) | MIC [3] | MIC [4] | MIC [5] | MIC [6] | MIC ([1]; Bacillus subtilis, ATCC6633) | MIC [2, 7] | MIC ([3]; Candida albicans, DSM10697) | MIC [4, 8] | MIC [5, 9] | MIC ([6]; Escherichia coli, ATCC8739) | melting point
1 | Nc1ccc2c(c1)C(=O)/C(=C/c1cccc(O)c1)O2 [Compound 33, (Z)-5-amino-2-(3-hydroxybenzylidene)benzofuran-3(2H)-one] | >100 µM | >100 µM | >100 µM | >100 µM | >100 µM | >100 µM |  |  |  |  |  |  | 
2 | COc1ccc(/C=C2\Oc3ccc(NC(C)=O)cc3C2=O)cc1 [Compound 6, (Z)-N-(2-(4-methoxybenzylidene)-3-oxo-2,3-dihydrobenzofuran-5-yl)acetamide] |  |  |  |  |  |  | > 100 µM | > 100 µM | > 100 µM | > 100 µM | > 100 µM | > 100 µM | 252 °C
3 | CC(=O)Nc1ccc2c(c1)C(=O)/C(=C/c1cccc(O)c1)O2 [Compound 32, (Z)-N-(2-(3-hydroxybenzylidene)-3-oxo-2,3-dihydrobenzofuran-5-yl)acetamide] | >100 µM | >100 µM | >100 µM | >100 µM | >100 µM | >100 µM |  |  |  |  |  |  | 
4 | COc1cccc(/C=C2\Oc3ccc(NC(C)=O)cc3C2=O)c1 [Compound 5, (Z)-N-(2-(3-methoxybenzylidene)-3-oxo-2,3-dihydrobenzofuran-5-yl)acetamide] |  |  |  |  |  |  | > 100 µM | 100 µM (≈ 30.9 µg/mL) | > 100 µM | > 100 µM | 100 µM (≈ 30.9 µg/mL) | > 100 µM | 204.2 °C
5 | CC(=O)Nc1ccc2c(c1)C(=O)/C(=C/c1cccc(C(F)(F)F)c1)O2 [Compound 29, (Z)-N-(3-oxo-2-(3-(trifluoromethyl)benzylidene)-2,3-dihydrobenzofuran-5-yl)acetamide] |  |  |  |  |  |  | > 100 µM | > 100 µM | > 100 µM | > 100 µM | > 100 µM | > 100 µM | 252.1 °C
6 | CC(=O)Nc1ccc2c(c1)C(=O)/C(=C/c1cccc(Oc3ccccc3)c1)O2 [Compound 14, (Z)-N-(3-oxo-2-(3-phenoxybenzylidene)-2,3-dihydrobenzofuran-5-yl)acetamide] |  |  |  |  |  |  | > 100 µM | > 100 µM | > 100 µM | > 100 µM | > 100 µM | > 100 µM | 196.4 °C
7 | CC(C)Oc1ccc(/C=C2\Oc3ccc(N)cc3C2=O)cc1 [Compound 23, (Z)-5-amino-2-(4-isopropoxybenzylidene)benzofuran-3(2H)-one] |  |  |  |  |  |  | > 100 µM | > 100 µM | > 100 µM | > 100 µM | > 100 µM | > 100 µM | > 350 °C
8 | COc1ccc(/C=C2\Oc3ccc(N)cc3C2=O)cc1 [Compound 9, (Z)-5-amino-2-(4-methoxybenzylidene)benzofuran-3(2H)-one] |  |  |  |  |  |  | > 100 µM | > 100 µM | > 100 µM | > 100 µM | > 100 µM | > 100 µM | 
9 | COc1ccccc1C=C1Oc2ccc(NC(C)=O)cc2C1=O [Compound 4] | 50 µM (≈ 15.5 µg/mL) | >100 µM | >100 µM | >100 µM | 100 µM (≈ 30.9 µg/mL) | >100 µM |  |  |  |  |  |  | 
10 | CO/N=C1\CN(c2nc3c(cc2F)c(=O)c(C(=O)O)cn3C2CC2)CC1CN (stereo not shown) [Gemifloxacin, reference compound] |  |  |  |  |  |  | 0.03 µM (≈ 0.0117 µg/mL) | 2 µM (≈ 0.779 µg/mL) |  | 0.25 µM (≈ 0.0973 µg/mL) | 0.06 µM (≈ 0.0234 µg/mL) | 0.06 µM (≈ 0.0234 µg/mL) | 
11 | COc1cccc(/C=C2\Oc3ccc(N)cc3C2=O)c1 [Compound 8, (Z)-5-amino-2-(3-methoxybenzylidene)benzofuran-3(2H)-one] |  |  |  |  |  |  | > 100 µM | > 100 µM | > 100 µM | > 100 µM | > 100 µM | > 100 µM | 

Source: publication PMC11047580, “Design and Synthesis of Novel Amino and Acetamidoaurones with Antimicrobial Activities” (Antibiotics, 2024)
